Measured values reported in PMC9293725 (Computational and Structural Biotechnology Journal, 2022).

Key:
[1] = tested on: P. falciparum Dd2 (multidrug-resistant); assay: In vitro P. falciparum growth inhibition; format: cell-based; conditions: Plasmodium falciparum, DD2, 72 h, read-out: EC50 PfDd2
[2] = tested on: P. falciparum 3D7 (chloroquine-sensitive); assay: In vitro P. falciparum growth inhibition; format: cell-based; conditions: Plasmodium falciparum; for EC50: 3D7, 72 h, read-out: EC50 Pf3D7; for inhibition at 5 µM: 3D7, read-out: inhibition of parasite growth
[3] = cited from earlier work
PfCDPK1 = conditions: read-out: KD PfCDPK1; cited from earlier work
[4] = Cytotoxicity, MTT reduction method, HepG2; format: cell-based; conditions: human, HepG2 cells
[5] = Cytotoxicity, MTT reduction method, COS-7; format: cell-based; conditions: monkey, COS-7 cells

Compound	EC50 [1]	EC50 [2]	inhibition at 5 µM [2]	further results
CCN(CC)CCCC(C)Nc1ccnc2cc(Cl)ccc12 (stereo not drawn) [Chloroquine, reference compound]	0.057 µM	0.009 µM	–	–
COc1ccc(-c2c(C)nn3c(NCCN4CCOCC4)cc(C)nc23)cc1OC [(6), 3-(3,4-dimethoxyphenyl)-2,5-dimethyl-N-(2-morpholin-4-ylethyl)pyrazolo[1,5-a]pyrimidin-7-amine]	17.9 ± 5.3 µM	13.8 ± 3.8 µM	> 30%	–
CS(=O)(=O)c1ccc(-c2cnc(N)c(-c3ccc(C(F)(F)F)nc3)c2)cc1 [MMV390048]	–	–	–	solubility (in words) [3]: poor solubility
Cc1cn(-c2cc(NC(=O)c3ccc(C)c(Nc4nccc(-c5cccnc5)n4)c3)cc(C(F)(F)F)c2)cn1 [Nilotinib]	–	–	–	Kd (PfCDPK1): 0.79 µM
O=C1Nc2ccccc2C1=Cc1ccc[nH]1 [(3), 3-(1H-pyrrol-2-ylmethylidene)-1H-indol-2-one]	9.8 ± 1.1 µM	10.3 ± 1.3 µM	> 30%	CC50 at 72 h [4]: 13.5 ± 7.6 µM; CC50 at 72 h [5]: 32.8 ± 10.8 µM
